Among the data in paper doi:10.1101/2024.02.03.578754v1 (biorxiv, 2024) are IC50 values, retold here.

For orientation: IC50 means the concentration needed to halve the response being measured.

Assay [1] deals with T1, OASS (O-acetylserine sulfhydrylase) (Arabidopsis thaliana, UniProt P47998). Description: biochemical.
Assay [2] addresses T1, OASS (O-acetylserine sulfhydrylase). Put plainly: fluorescence polarization competition. It is filed as binding. For orientation: Fluorescence polarisation rises when a labelled molecule tumbles more slowly, as on binding a larger partner.

T1 sequence (P47998 whole entry): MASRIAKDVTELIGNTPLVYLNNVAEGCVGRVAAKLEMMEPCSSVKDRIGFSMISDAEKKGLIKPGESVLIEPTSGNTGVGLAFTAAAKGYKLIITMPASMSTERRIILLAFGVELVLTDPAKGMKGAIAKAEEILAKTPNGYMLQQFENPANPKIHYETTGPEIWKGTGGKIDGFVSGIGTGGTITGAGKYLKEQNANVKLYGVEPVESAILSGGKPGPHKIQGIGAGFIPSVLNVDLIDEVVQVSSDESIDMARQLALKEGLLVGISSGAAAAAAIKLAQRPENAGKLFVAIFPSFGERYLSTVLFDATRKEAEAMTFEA

Regarding `O=C(Nc1cccc(NC(=O)c2ccccc2-c2ccccc2C(=O)O)c1)c1nccs1` [compound 11, 11], the 50% inhibitory concentration (IC50) in assay [1] was found to be 10.1 µM.

The compound `O=C(O)c1ccccc1-c1ccccc1C(=O)Nc1nc(-c2ccc(Cl)cc2Cl)cs1` [PJ15] yielded an IC50 in assay [2] of 4.7 µM. In assay [1], `NCCc1ccc(-c2csc(NC(=O)c3ccccc3-c3ccccc3C(=O)O)n2)cc1` [PJ13] registered a half-maximal inhibitory concentration (IC50) of 2 µM. Take `O=C(O)c1ccccc1-c1ccccc1C(=O)Nc1cccc(-c2nc3ccccc3[nH]2)c1` [PJ8]: the IC50 in assay [1] (read-out: FP IC50, inhibitor) turned out to be 4.1 µM. For the compound `COc1ccc(-c2nc(NC(=O)c3ccccc3-c3ccccc3C(=O)O)sc2C)cc1` [compound 33, 33], the IC50 in assay [1] came to 6.7 µM. As to `O=C(O)c1ccccc1-c1cccnc1C(=O)Nc1nc(-c2ccc(Cl)cc2Cl)cs1` [compound 18], the IC50 in assay [1] (read-out: FP IC50, inhibitor) was 12.2 µM. As for `CC(C)Cc1ccc(-c2csc(NC(=O)c3ccccc3-c3ccccc3C(=O)O)n2)cc1` [PJ14], the IC50 in assay [2] was 5.4 µM; in assay [1], 4.8 µM. As for `COc1ccc(-c2cc(NC(=O)c3ccccc3-c3ccccc3C(=O)O)n(CCO)n2)cc1` [PJ34], the IC50 in assay [2] is 50 µM. Compound `Nc1cc(F)ccc1-c1csc(NC(=O)c2ccccc2-c2ccccc2C(=O)O)n1` [compound 17] showed an IC50 in assay [1] of 2.7 µM.
